Ten compounds from ChEMBL document CHEMBL4411264, “Methionine-Containing Rhabdopeptide/Xenortide-like Peptides from Heterologous Expression of the Biosynthetic Gene Cluster kj12ABC in Escherichia coli” (J Nat Prod, 2018) can be followed below.

Square brackets hold non-standard residues; d marks the D form. Peptide text beside a SMILES is read from it. * marks the point of attachment. NHPhenethyl = c1ccc(CCN*)cc1; NMeM = CN[C@@H](CCSC)C(=O)O; NMeV = CN[C@H](C(=O)O)C(C)C

Experiment [1] has as its system Trypanosoma brucei rhodesiense. The experiment in a line: Antitrypanosomal activity against Trypanosoma brucei rhodesiense STIB900 bloodstream forms after 72 hrs by Alamar blue staining-based fluorometric analysis. Particulars: STIB900, 72 h. The experiment is classed as functional, organism-based. A general note: Alamar Blue is a resazurin reagent that responds to reducing activity.

The subject of experiment [2] is Plasmodium falciparum. The experiment in a line: Antiplasmodial activity against Plasmodium falciparum NF54 erythrocytic stage assessed as reduction in [3H]hypoxanthine incorporation preincubated for 48 hrs followed by [3H]hypoxanthine addition and measured after 24 hrs by liquid scintillation counting method. Type of experiment: functional, organism-based.
Experiment [3] deals with L6. The experiment in a line: Cytotoxicity against rat L6 cells assessed as reduction in cell viability after 72 hrs by Alamar blue staining-based fluorometric analysis. Particulars: L6, 72 h.
The subject of experiment [4] is Leishmania donovani. The experiment in a line: Antileishmanial activity against Leishmania donovani MHOM/ET/67/L82 axenic amastigotes after 72 hrs by alamar blue staining based fluorescence assay. Type of experiment: functional, organism-based. The note with it: MHOM/ET/67/L82, 72 h.
For experiment [5], the system named is Trypanosoma cruzi. The experiment in a line: Antiparasitic activity against Trypanosoma cruzi Tulahuen C4 trypomastigotes infected in rat L6 cells after 96 hrs by CPRG/Nonidet reagent based photometric analysis. Type of experiment: functional, organism-based. Particulars: Tulahuen C4, L6, 96 h.

A word on the IC50: it is the concentration at which inhibition is half-maximal. `CN[C@H](C(=O)N[C@H](C(=O)N(C)[C@@H](CCSC)C(=O)N(C)[C@H](C(=O)N(C)[C@H](C(=O)NCCc1ccccc1)C(C)C)C(C)C)C(C)C)C(C)C` (H-[NMeV]V[NMeM][NMeV][NMeV]-NHPhenethyl): the IC50 in experiment [1] is 5.7 µM; in experiment [2] it was 4.1 µM; in experiment [3], 31.3 µM; in experiment [4] it was over 100 µM; in experiment [5], 25.4 µM.
`CN[C@H](C(=O)N[C@H](C(=O)N(C)[C@H](C(=O)N(C)[C@H](C(=O)NCCc1ccccc1)C(C)C)C(C)C)C(C)C)C(C)C` (H-[NMeV]V[NMeV][NMeV]-NHPhenethyl): the IC50 was 10.5 µM in experiment [1]; 5.3 µM in experiment [2]; 89.1 µM in experiment [3]; over 100 µM in experiment [4]; 69.4 µM in experiment [5].
In the case of `CSCC[C@@H](C(=O)N(C)[C@H](C(=O)N(C)[C@H](C(=O)NCCc1ccccc1)C(C)C)C(C)C)N(C)C(=O)[C@@H](N)C(C)C` (H-V[NMeM][NMeV][NMeV]-NHPhenethyl), the IC50 in experiment [1] is 8.5 µM; in experiment [2], 7.9 µM; in experiment [3] it was 75.2 µM; in experiment [4], over 100 µM; in experiment [5], 62.9 µM.
Consider `CN[C@H](C(=O)N[C@H](C(=O)N(C)[C@H](C(=O)N(C)[C@H](C(=O)N(C)[C@@H](CCSC)C(=O)NCCc1ccccc1)C(C)C)C(C)C)C(C)C)C(C)C` (H-[NMeV]V[NMeV][NMeV][NMeM]-NHPhenethyl), for which the IC50 was 4.3 µM in experiment [1]; 6.6 µM in experiment [2]; 71.2 µM in experiment [3]; over 100 µM in experiment [4]; 53 µM in experiment [5].
The corresponding values for `CN[C@H](C(=O)N[C@H](C(=O)N(C)[C@H](C(=O)N(C)[C@@H](CCSC)C(=O)NCCc1ccccc1)C(C)C)C(C)C)C(C)C` (H-[NMeV]V[NMeV][NMeM]-NHPhenethyl) are 12.3 µM, 10.9 µM, over 100 µM, over 100 µM and 75 µM.
`O=C(Cn1ccnc1[N+](=O)[O-])NCc1ccccc1` [BENZNIDAZOLE] yielded an IC50 in experiment [5] of 2.8 µM.
As for `CN[C@H](C(=O)N[C@H](C(=O)N(C)[C@H](C(=O)N(C)[C@H](C(=O)N(C)[C@H](C(=O)NCCc1ccccc1)C(C)C)C(C)C)C(C)C)C(C)C)C(C)C` (H-[NMeV]V[NMeV][NMeV][NMeV]-NHPhenethyl), the IC50 in experiment [1] is 1.4 µM; in experiment [2] it was 4.6 µM; in experiment [3] it was 56.2 µM; in experiment [4] it was over 100 µM; in experiment [5], 26.2 µM.
Regarding `COc1cc([C@@H]2c3cc4c(cc3[C@H](O)[C@H]3COC(=O)[C@H]23)OCO4)cc(OC)c1OC` [PODOFILOX], the IC50 in experiment [3] stood at 0.01 µM.
On to `CSCC[C@@H](C(=O)N[C@H](C(=O)N(C)[C@H](C(=O)N(C)[C@H](C(=O)NCCc1ccccc1)C(C)C)C(C)C)C(C)C)N(C)C(=O)[C@@H](N)C(C)C` (H-V[NMeM]V[NMeV][NMeV]-NHPhenethyl), for which the IC50 in experiment [1] worked out at 7.3 µM; in experiment [2], 3.2 µM; in experiment [3] it was 70.8 µM; in experiment [4] it was 18.8 µM; in experiment [5] it was 14.2 µM.
On the same counts, the results for `CSCC[C@@H](C(=O)N(C)[C@H](C(=O)N(C)[C@H](C(=O)N(C)[C@H](C(=O)NCCc1ccccc1)C(C)C)C(C)C)C(C)C)N(C)C(=O)[C@@H](N)C(C)C` (H-V[NMeM][NMeV][NMeV][NMeV]-NHPhenethyl) are 2.7 µM, 2.3 µM, 23.9 µM, 92.3 µM and 12.6 µM.
